From patent US20130143891A1, “Methods for Treating Methotrexate-Resistant Disorders with 10-Propargyl-10-Deazaaminopterin” (ALLOS THERAPEUTICS, INC., priority 2010, published 2013)
“Also recorded” adds a separate entry of the source. Where two headings read alike, the source gives them in different places.

Tests used:
[1] = tested on: HT29 colon cancer cell line; test: MTT cell cytotoxicity assay, HT29; format: cell-based, human; conditions: 72 h exposure, read-out: Cytotoxicity (IC50s)
Protocol: (§1) A panel of colon (HT29, HCT116, COLO205, HCC2998), breast (MCF7, MDA-MB-435), lung (HOP62, HOP92), ovarian (OVCAR3, IGROV1), prostate (DU145, PC3), and head and neck (SCC61, HEP2, SQ20B) human cancer cell lines was purchased from the ATCC (Rockville, Md.) and National Cancer Institute collections. […] All the data generated was the result of three separate experiments performed in duplicate. Cell viability was determined using the MTT assay, which was carried out as described previously (Hansen, 1989). Briefly, cells were seeded in 96-well plates at a density of 2×10^3 cells well^−1. […] The monolayer was suspended in 0.1 ml of DMSO and the absorbance at 560 nm was measured using a microplate reader. Positive and negative controls included wells with untreated cells or medium containing MTT with no cells, respectively. The conversion of yellow water-soluble tetrazolium MTT into purple insoluble formazan is catalyzed by mitochondrial dehydrogenases and is used to estimate the number of viable cells.

[2] = tested on: OVCAR3 ovarian cancer cell line; test: MTT cell cytotoxicity assay, OVCAR3; format: cell-based, human; conditions: 72 h exposure, read-out: Cytotoxicity (IC50s)
Protocol: as §1

[3] = tested on: SQ20B head and neck cancer cell line; test: MTT cell cytotoxicity assay, SQ20B; format: cell-based, human; conditions: 72 h exposure, read-out: Cytotoxicity (IC50s)
Protocol: as §1

[4] = tested on: HCC2998 colon cancer cell line; test: MTT cell cytotoxicity assay, HCC2998; format: cell-based, human; conditions: 72 h exposure, read-out: Cytotoxicity (IC50s)
Protocol: as §1

[5] = tested on: DU145 prostate cancer cell line; test: MTT cell cytotoxicity assay, DU145; format: cell-based, human; conditions: naïve/parental, 72 h exposure, read-out: Cytotoxicity (IC50s)
Protocol: as §1

[6] = tested on: COLO205 colon cancer cell line; test: MTT cell cytotoxicity assay, COLO205; format: cell-based, human; conditions: 72 h exposure, read-out: Cytotoxicity (IC50s)
Protocol: as §1

[7] = tested on: IGROV1 ovarian cancer cell line; test: MTT cell cytotoxicity assay, IGROV1; format: cell-based, human; conditions: 72 h exposure, read-out: Cytotoxicity (IC50s)
Protocol: as §1

[8] = tested on: HCT116 colon cancer cell line; test: MTT cell cytotoxicity assay, HCT116; format: cell-based, human; conditions: 72 h exposure, read-out: Cytotoxicity (IC50s)
Protocol: as §1

[9] = tested on: SCC61 head and neck cancer cell line; test: MTT cell cytotoxicity assay, SCC61; format: cell-based, human; conditions: 72 h exposure, read-out: Cytotoxicity (IC50s)
Protocol: as §1

HOP92 NSCLC cell line = test: MTT cell cytotoxicity assay, HOP92; format: cell-based, human; conditions: 72 h exposure, read-out: Cytotoxicity (IC50s)
Protocol: as §1

[10] = tested on: MDA-MB-435 melanoma cell line; test: MTT cell cytotoxicity assay, MDA-MB-435; format: cell-based, human; conditions: MDA-MB-435 (melanoma; MDA435 in table), 72 h exposure, read-out: Cytotoxicity (IC50s)
Protocol: as §1

[11] = tested on: MCF7 breast cancer cell line; test: MTT cell cytotoxicity assay, MCF7; format: cell-based, human; conditions: 72 h exposure, read-out: Cytotoxicity (IC50s)
Protocol: as §1

[12] = tested on: PC3 prostate cancer cell line; test: MTT cell cytotoxicity assay, PC3; format: cell-based, human; conditions: 72 h exposure, read-out: Cytotoxicity (IC50s)
Protocol: as §1

DU-PDX cells = test: Cytotoxicity in 10-propargyl-10-deazaminopterin-adapted DU145 cells; format: cell-based, human
Protocol: (§2) All the data generated was the result of three separate experiments performed in duplicate. Cell viability was determined using the MTT assay, which was carried out as described previously (Hansen, 1989). Briefly, cells were seeded in 96-well plates at a density of 2×10^3 cells well^−1. Cells were incubated for 120 hours and then 0.4 mg ml^−1 of MTT dye (3-[4,5-dimethylthiazol-2-yl]-2,5-diphenyltetrazolium bromide was added for 4 hours at 37° C. The monolayer was suspended in 0.1 ml of DMSO and the absorbance at 560 nm was measured using a microplate reader. Positive and negative controls included wells with untreated cells or medium containing MTT with no cells, respectively. The conversion of yellow water-soluble tetrazolium MTT into purple insoluble formazan is catalyzed by mitochondrial dehydrogenases and is used to estimate the number of viable cells. The control value corresponding to untreated cells was taken as 100% and the viability of treated samples was expressed as a percentage of the control. IC50 values were determined as concentrations that reduced cell viability by 50%.
(§3) For single agent studies, cells were seeded and allowed to settle for 24 hours prior to treatment with increasing concentrations of 10-propargyl-10-deazaminopterin for 72 h. After incubation, the cells were allowed to recover in compound-free medium for 48 h, prior to determination of growth inhibition using the MTT assay.
(§4) To characterize the predictive factors of 10-propargyl-10-deazaminopterin antiproliferative effects, the cell lines DU-PDX and HEP-PDX were developed from parental DU145 and HEP2 cells, respectively, by exposure to stepwise increasing concentrations of 10-propargyl-10-deazaminopterin over a period of 6 months.

[13] = tested on: HEP2 head and neck cancer cell line; test: MTT cell cytotoxicity assay, HEP2; format: cell-based, human; conditions: 72 h exposure, read-out: Cytotoxicity (IC50s)
Protocol: as §1

HOP62 NSCLC cell line = test: MTT cell cytotoxicity assay, HOP62; format: cell-based, human; conditions: 72 h exposure, read-out: Cytotoxicity (IC50s)
Protocol: as §1

HEP-PDX cells = test: Cytotoxicity in 10-propargyl-10-deazaminopterin-adapted HEP2 cells; format: cell-based, human
Protocol: as §2, §3, §4

DHFR = test: Western blot of DHFR protein expression; format: cell-based, human
Protocol: Cells were lysed in buffer containing 50 mM HEPES (pH 7.6), 150 mM NaCl, 1% Triton X-100, 2 mM sodium vanadate, 100 mM NaF, and 0.4 mg·ml^−1 phenylmethylsulfonyl fluoride. Equal amounts of protein (20-50 μg/lane) were subjected to SDS-PAGE and transferred to nitrocellulose membranes. Membranes were probed with anti-cleaved PARP, anti-cleaved caspase 3, anti-caspase 9 (Cell Signaling, Saint Quentin Yvelines, France), anti-DHFR (Abcam, France), anti-β-actin (Sigma Aldrich, Saint-Quentin Fallavier, France) specific primary antibodies followed by peroxidase-linked secondary antibodies and visualization by chemiluminescence.

[14] = tested on: 15 human solid tumor cell lines; test: Cytotoxicity across panel of 15 human solid tumor cell lines; format: cell-based
Protocol: A panel of colon (HT29, HCT116, COLO205, HCC2998), breast (MCF7, MDA-MB-435), lung (HOP62, HOP92), ovarian (OVCAR3, IGROV1), prostate (DU145, PC3), and head and neck (SCC61, HEP2, SQ20B) human cancer cell lines was purchased from the ATCC (Rockville, Md.) and National Cancer Institute collections. Cells were grown as monolayers in RPMI medium supplemented with 10% fetal calf serum, 2 mM glutamine, 100 units ml^−1 penicillin and […] streptomycin.
as §2, §3

DU-MTX cells = test: Cytotoxicity in methotrexate-adapted DU145 cells; format: cell-based, human
Protocol: as §2, §3
To compare the mechanisms of 10-propargyl-10-deazaminopterin and methotrexate resistance, the cell lines DU-MTX and HEP-MTX were developed from parental DU145 and HEP2 cells by exposure to stepwise increasing concentrations of methotrexate.

HEP-MTX cells = test: Cytotoxicity in methotrexate-adapted HEP2 cells; format: cell-based, human; conditions: methotrexate-adapted HEP2 compared with parental cells
Protocol: as §2
For single agent studies, cells were seeded and allowed to settle for 24 hours prior to treatment with increasing concentrations of 10-propargyl-10-deazaminopterin for 72 h. […]

[15] = DU-PDX cells, 72 h exposure for pemetrexed and 5-FU
[16] = HEP-PDX cells, 72 h exposure for pemetrexed and 5-FU

Structure (SMILES)	IC50 ([1]; Homo sapiens, HT-29, 72 h) [nM]	IC50 ([2]; Homo sapiens, OVCAR-3, 72 h) [µM]	IC50 ([3]; Homo sapiens, SQ20B, 72 h) [µM]	IC50 ([4]; Homo sapiens, HCC 2998, 72 h) [µM]	IC50 ([5]; Homo sapiens, DU-145, 72 h) [nM]	IC50 ([6]; Homo sapiens, COLO 205, 72 h) [µM]	IC50 ([7]; Homo sapiens, IGROV-1, 72 h) [µM]	IC50 ([8]; Homo sapiens, HCT-116, 72 h) [µM]	IC50 ([9]; Homo sapiens, 72 h) [nM]	IC50 (HOP92 NSCLC cell line; Homo sapiens, HOP-92, 72 h) [µM]	IC50 ([10]; Homo sapiens, MDA-MB-435, 72 h) [µM]	IC50 ([11]; Homo sapiens, MCF7, 72 h) [µM]	IC50 ([12]; Homo sapiens, 72 h) [nM]	cross-resistance: cytotoxicity in DU-PDX compared with parental DU145 (DU-PDX cells; [15])	IC50 ([13]; Homo sapiens, HEp-2, 72 h) [nM]	IC50 (HOP62 NSCLC cell line; Homo sapiens, HOP-62, 72 h) [µM]	cross-resistance: cytotoxicity in HEP-PDX compared with parental HEP2 (HEP-PDX cells; [16])	IC50 [6] [µM]	IC50 [7] [µM]	IC50 [13] [nM]	also measured
O=c1[nH]cc(F)c(=O)[nH]1 [5-FU, 5-fluorouracil]	3000	31	10	10	7000	0.8	8	10	1200	18	5	1.3	1500	No significant difference	86000	78	No significant difference				
C#CCC(Cc1cnc2nc(N)nc(N)c2n1)c1ccc(C(=O)N[C@@H](CCC(=O)O)C(=O)O)cc1 (mixture of isomers) [Pralatrexate, (2S)-2-[[4-[(1RS)-1-[(2,4-diaminopteridin-6-yl)methyl]but-3-ynyl]benzoyl]amino]pentanedioic acid]						≥ 9	< 0.1								< 100			9	0.08	50	DHFR protein expression after prolonged exposure (DHFR; 6 months exposure, HEP-PDX cells): not after prolonged (6 months) exposure; DHFR protein expression after short exposure (DHFR; 24 hour exposure (FIG. 6)): slightly increased; IC50 ([14]; 6 of the 15 human cancer cell lines, read-out: IC50 in the 6 relatively resistant of 15 cell lines): > 9 µM; IC50s on average lower than those observed for methotrexate ([14]; average over the panel): ~10 fold; IC50 ([14]; nine of the 15 human cancer cell lines, read-out: IC50 in the nine sensitive of 15 cell lines): < 0.1 µM; IC50 ([5]; listed as 10-propargyl-10-deazaminopterin): 10 nM; IC50 lower than that of methotrexate (DU-MTX cells; DU-MTX cells): approximately 10 fold; IC50 (DU-MTX cells; Homo sapiens, DU-145, DU-MTX cells (FIG. 3), read-out: IC50 for the methotrexate adapted DU-145 cell lines): 20 nM; less sensitive (resistant) than parental cells (DU-PDX cells; DU-PDX versus parental DU145): more than 200 fold; change in cytotoxicity with and without verapamil and cyclosporine A (DU-PDX cells; DU-PDX, 30 μM verapamil and 3 μM cyclosporin A concomitantly for 72 hours): No changes were observed; less sensitive (resistant) than parental cells (HEP-PDX cells; HEP-PDX versus parental HEP2): more than 200 fold; change in cytotoxicity with and without verapamil and cyclosporine A (HEP-PDX cells; HEP-PDX, 30 μM verapamil and 3 μM cyclosporin A concomitantly for 72 hours): No changes were observed
Nc1nc2[nH]cc(CCc3ccc(C(=O)N[C@@H](CCC(=O)O)C(=O)O)cc3)c2c(=O)[nH]1 [Pemetrexed, pemetrexed]	23	0.025	0.025	1.5	48	0.024	300	350	15	0.02	300	0.022	2700		100	0.029					cross-resistance: cytotoxicity in DU-PDX compared with parental DU145 (DU-PDX cells): only slightly less cytotoxic; cross-resistance: cytotoxicity in HEP-PDX compared with parental HEP2 (HEP-PDX cells): only slightly less cytotoxic
C[C@H]1O[C@@H](n2cc(F)c(=O)[nH]c2=O)[C@H](O)[C@@H]1O [5′-DFUR]																		3.9	29	250000	IC50 [1]: 16000 nM; IC50 [2]: 230 µM; IC50 [3]: 27 µM; IC50 [4]: 34 µM; IC50 [5]: 28000 nM; IC50 [8]: 45 µM; IC50 [9]: 3200 nM; IC50 (HOP92 NSCLC cell line): 135 µM; IC50 [10]: 33 µM; IC50 [11]: 7.8 µM; IC50 [12]: 25000 nM; IC50 (HOP62 NSCLC cell line): 380 µM
CN(Cc1cnc2nc(N)nc(N)c2n1)c1ccc(C(=O)N[C@@H](CCC(=O)O)C(=O)O)cc1 [Methotrexate]	220	> 350	0.26	> 350	300	30	0.33	> 350	30	0.6	> 350	300	100	partial cross-resistance; also recorded: insensitive	250	0.15	partial cross-resistance				sensitivity of HEP-MTX cells (in words) (HEP-MTX cells): displayed resistance; increase in IC50 in methotrexate adapted DU-145 cells (DU-MTX cells; DU-MTX versus naïve DU-145): approximately 10 fold; sensitivity of DU-MTX cells (in words) (DU-MTX cells; methotrexate-adapted DU145 compared with parental/naïve cells): displayed resistance
